Data taken from US12077503B2, “Substituted cyclic amides and their use as herbicides” (FMC CORPORATION, priority 2015, dated 2024).

Assays:
Format in all cases: in vivo
[1] = system: pigweed (Amaranthus retroflexus); test: Test A preemergence
[2] = system: giant foxtail (Setaria faberii); test: Test A preemergence
How it was run: (§1)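 Each rating is a visual injury score from 0 to 100 given about 10 d after treatment, judged against untreated controls kept alongside in the greenhouse. In loam soil–sand blend, seeds got a preemergence directed soil spray, while postemergence plants were 2 to 10 cm tall at spraying.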

[3] = system: ragweed (common ragweed, Ambrosia elatior); test: Test A preemergence
How it was run: as §1

Kochia (Kochia scoparia) [4] = test: Test A preemergence
How it was run: as §1

[5] = system: barnyardgrass (Echinochloa crus-galli); test: Test A preemergence
How it was run: as §1

[6] = system: ryegrass, Italian (Italian ryegrass, Lolium multiflorum); test: Test A preemergence
How it was run: as §1

corn (Zea mays) = test: Test A postemergence
How it was run: as §1

[7] = system: blackgrass (Alopecurus myosuroides); test: Test A postemergence
How it was run: as §1

[8] = system: pigweed (Amaranthus retroflexus); test: Test A postemergence; settings: postemergence, 0 to 100 scale (0 no effect, 100 complete control)
How it was run: as §1

[9] = system: giant foxtail (Setaria faberii); test: Test A postemergence; settings: postemergence, 0 to 100 scale (0 no effect, 100 complete control)
How it was run: as §1

[10] = system: Galium (catchweed bedstraw, Galium aparine); test: Test A postemergence; settings: postemergence, 0 to 100 scale (0 no effect, 100 complete control)
How it was run: as §1

[11] = system: wheat (Triticum aestivum); test: Test A postemergence; settings: postemergence, 0 to 100 scale (0 no effect, 100 complete control)
How it was run: as §1

[12] = system: ragweed (common ragweed, Ambrosia elatior); test: Test A postemergence; settings: postemergence, 0 to 100 scale (0 no effect, 100 complete control)
How it was run: as §1

Kochia (Kochia scoparia) [13] = test: Test A postemergence; settings: postemergence, 0 to 100 scale (0 no effect, 100 complete control)
How it was run: as §1

[14] = system: barnyardgrass (Echinochloa crus-galli); test: Test A postemergence
How it was run: as §1

[15] = system: ryegrass, Italian (Italian ryegrass, Lolium multiflorum); test: Test A postemergence; settings: postemergence, 0 to 100 scale (0 no effect, 100 complete control)
How it was run: as §1

rice (Oryra sativa) = test: Test B flooded paddy test; settings: Flood, 250 g ai/ha; 0 to 100 scale where 0 is no effect and 100 is complete control; 13 to 15 d
How it was run: (§2)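 Percent control, visually estimated after 13–15 d in the greenhouse on a 0–100 basis, compares treated pots with untreated ones; compound was put into paddy water 3 cm above the soil when plants had two leaves.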

[16] = system: sedge, umbrella (small-flower umbrella sedge, Cyperus difformis); test: Test B flooded paddy test; settings: Flood, 250 g ai/ha; 0 to 100 scale where 0 is no effect and 100 is complete control; 13 to 15 d
How it was run: as §2

[17] = system: barnyardgrass (Echinochloa crus-galli); test: Test B flooded paddy test; settings: Flood, 250 g ai/ha; 0 to 100 scale where 0 is no effect and 100 is complete control; 13 to 15 d
How it was run: as §2

[18] = system: ducksalad (Heteranthera limosa); test: Test B flooded paddy test; settings: Flood, 250 g ai/ha; 0 to 100 scale where 0 is no effect and 100 is complete control; 13 to 15 d
How it was run: as §2

[19] = 125 g ai/ha, Preemergence, visual injury after approximately 10 d, 0 to 100 scale where 0 is no effect and 100 is complete control
[20] = 500 g ai/ha, preemergence, 0 to 100 scale, 0 = no effect, 100 = complete control
[21] = 125 g ai/ha, postemergence, visual rating after approx. 10 d, 0 to 100 scale (0 no effect, 100 complete control)
[22] = Postemergence, 500 g ai/ha, 0 to 100 scale where 0 is no effect and 100 is complete control
[23] = 125 g ai/ha, visual rating after approx. 10 d
[24] = 500 g ai/ha, visual injury, approx. 10 d
[25] = 500 g ai/ha, postemergence, visual injury, 0 to 100 scale (0 no effect, 100 complete control), approx. 10 d
[26] = 125 g ai/ha, preemergence, visual rating after approx. 10 d, 0 to 100 scale where 0 is no effect and 100 is complete control
[27] = 125 g ai/ha, visual injury after approximately 10 d

Compound | Plant response rating, Pigweed [1, 20] | Plant response rating, Foxtail, Giant [2, 19] | Plant response rating, Foxtail, Giant [2, 20] | Plant response rating, Ragweed [3, 20] | Plant response rating, Kochia (Kochia (Kochia scoparia) [4]; [19]) | Plant response rating, Kochia (Kochia (Kochia scoparia) [4]; [20]) | Plant response rating, Barnyardgrass [5, 19] | Plant response rating, Barnyardgrass [5, 20] | Plant response rating, Ryegrass, Italian [6, 20] | Plant response rating, Blackgrass [7, 21] | Plant response rating, Pigweed [8, 24] | Plant response rating, Foxtail, Giant [9, 24] | Plant response rating, Galium [10, 24] | Plant response rating, Wheat [11, 24] | Plant response rating, Ragweed [12, 24] | Plant response rating, Kochia (Kochia (Kochia scoparia) [13]; [24]) | Plant response rating, Barnyardgrass [14, 21] | Plant response rating, Ryegrass, Italian [15, 24] | Plant response rating, Rice (rice (Oryra sativa)) | Plant response rating, Sedge, Umbrella [16] | further results
CN1CC(c2cccc(F)c2)C(C(=O)Nc2cccc(F)c2F)C1=O (stereo not drawn) [Compound 632] | 70 | 90 | 90 | 70 | 50 | 70 | 90 | 90 | 70 | 50 | 40 | 90 | 50 | 60 | 30 | 60 | 90 | 50 | 30 | 50 | Plant response rating, Pigweed [1, 19]: 0; Plant response rating, Ragweed [3, 19]: 60; Plant response rating, Ryegrass, Italian [6, 19]: 60; Plant response rating, Corn (corn (Zea mays); [21]): 20; Plant response rating, Corn (corn (Zea mays); [22]): 80; Plant response rating, Blackgrass [7, 22]: 60; Plant response rating, Pigweed [8, 23]: 0; Plant response rating, Foxtail, Giant [9, 23]: 90; Plant response rating, Galium [10, 23]: 50; Plant response rating, Wheat [11, 23]: 30; Plant response rating, Ragweed [12, 23]: 20; Plant response rating, Kochia (Kochia (Kochia scoparia) [13]; [23]): 60; Plant response rating, Barnyardgrass [14, 22]: 90; Plant response rating, Ryegrass, Italian [15, 23]: 30; Plant response rating, Barnyardgrass [17]: 80; Plant response rating, Ducksalad [18]: 100
CN1CC(c2cc(F)cc(F)c2)C(C(=O)Nc2cccc3c2CCCC3)C1=O (stereo not drawn) [Compound 660] | 0 | 80 | 90 | 0 | 0 | 0 | 60 | 90 | 20 | 0 | 0 | 90 | 0 | 0 | 0 | 0 | 50 | 0 | 15 | 0 | Plant response rating, Pigweed [1, 19]: 0; Plant response rating, Ragweed [3, 19]: 0; Plant response rating, Ryegrass, Italian [6, 19]: 0; Plant response rating, Corn (corn (Zea mays); [21]): 0; Plant response rating, Corn (corn (Zea mays); [25]): 0; Plant response rating, Blackgrass [7, 25]: 40; Plant response rating, Pigweed [8, 23]: 0; Plant response rating, Foxtail, Giant [9, 23]: 80; Plant response rating, Galium [10, 23]: 0; Plant response rating, Wheat [11, 23]: 0; Plant response rating, Ragweed [12, 23]: 0; Plant response rating, Kochia (Kochia (Kochia scoparia) [13]; [23]): 0; Plant response rating, Barnyardgrass [14, 25]: 80; Plant response rating, Ryegrass, Italian [15, 23]: 0; Plant response rating, Barnyardgrass [17]: 45; Plant response rating, Ducksalad [18]: 60
Cc1cccc(C2CN(C)C(=O)C2C(=O)Nc2ccccc2S(C)(=O)=O)c1 (stereo not drawn) [Compound 668] | 50 | 90 | 100 | 40 | 20 | 70 | 90 | 90 | 0 | 60 | 0 | 90 | 70 | 60 | 0 | 20 | 90 | 70 | 0 | 0 | Plant response rating, Pigweed [1, 19]: 20; Plant response rating, Ragweed [3, 19]: 0; Plant response rating, Ryegrass, Italian [6, 19]: 0; Plant response rating, Corn (corn (Zea mays); [21]): 20; Plant response rating, Corn (corn (Zea mays); [25]): 80; Plant response rating, Blackgrass [7, 25]: 70; Plant response rating, Pigweed [8, 23]: 0; Plant response rating, Foxtail, Giant [9, 23]: 90; Plant response rating, Galium [10, 23]: 20; Plant response rating, Wheat [11, 23]: 20; Plant response rating, Ragweed [12, 23]: 0; Plant response rating, Kochia (Kochia (Kochia scoparia) [13]; [23]): 20; Plant response rating, Barnyardgrass [14, 25]: 90; Plant response rating, Ryegrass, Italian [15, 23]: 0; Plant response rating, Barnyardgrass [17]: 70; Plant response rating, Ducksalad [18]: 98
O=C(Nc1ccccc1F)C1C(=O)N(CC2CC2)CC1c1cccc(C(F)(F)F)c1 (stereo not drawn) [Compound 682] | 0 | 90 | 90 | 0 | 0 | 0 | 0 | 0 | 30 | 0 | 0 | 80 | 0 | 20 | 0 | 0 | 0 | 0 | 0 | 0 | Plant response rating, Pigweed [1, 26]: 0; Plant response rating, Ragweed [3, 26]: 0; Plant response rating, Ryegrass, Italian [6, 26]: 20; Plant response rating, Corn (corn (Zea mays); 125 g ai/ha, postemergence, visual injury after approximately 10 d, 0 to 100 scale (0 no effect, 100 complete control)): 0; Plant response rating, Corn (corn (Zea mays); [25]): 0; Plant response rating, Blackgrass [7, 25]: 0; Plant response rating, Pigweed [8, 27]: 0; Plant response rating, Foxtail, Giant [9, 27]: 20; Plant response rating, Galium [10, 27]: 0; Plant response rating, Wheat [11, 27]: 0; Plant response rating, Ragweed [12, 27]: 0; Plant response rating, Kochia (Kochia (Kochia scoparia) [13]; [27]): 0; Plant response rating, Barnyardgrass [14, 25]: 20; Plant response rating, Ryegrass, Italian [15, 27]: 0; Plant response rating, Barnyardgrass [17]: 0; Plant response rating, Ducksalad [18]: 0
